{
  "source": "patent US20120269762A1",
  "about": "“CAUSAL THERAPY OF DISEASES OR CONDITIONS ASSOCIATED WITH CNS OR PNS DEMYELINATION” (UNIVERSITY COLLEGE DUBLIN, NATIONAL UNIVERSITY OF IRELAND, …, priority 2009, published 2012)",
  "key": {"[1]": {"system": "organotypic cultures of rat hippocampus", "assay": "LPC-induced demyelination in hippocampal organotypic slice culture (MBP immunofluorescence)", "format": "cell-based, Wistar rats", "conditions": "10 μm drug, 24 h post-LPC treatment (250 μg/ml LPC for 18 hours); compared to control", "protocol": "Slices were maintained in normal organotypic medium for 10 days, at which point demyelination was induced by exposing the cultures to 250 μg/ml lysophosphatidylcholine (LPC) in the medium for 18 hours. After the LPC exposure, slices were returned to LPC free medium containing either 10 μm nefiracetam, 10 μm piracetam, 10 μm levetiracetam, 10 μm aniracetam, or no drug. […] Protoc. […] Labelled MBP in the cultures was imaged by confocal microscopy, and the degree of myelination was compared to time matched cultures that had not undergone LPC exposure."}, "[2]": {"conditions": "clinical studies, oral administration; cited from earlier work"}, "[3]": {"system": "C57BL/6 mice on cuprizone diet", "assay": "Cuprizone animal model of demyelination (luxol fast blue myelin staining, corpus callosum)", "format": "in vivo", "conditions": "30 mg/kg/day i.p. from 5 days before return to normal diet; 1 day time-point after 6 weeks cuprizone (0.2% wt/wt) diet", "protocol": "Demyelination was induced by feeding 12-14 week old C57B1/6 mice a diet containing 0.2% cuprizone (bis-cyclohexanone oxaldihydrazone) mixed into food pellets. This diet was maintained ad libitum for 6 weeks before returning animals to normal chow (T=0) in order to study remyelination. Control animals received control chow throughout the study. Commencing from 5 days before the return to control chow (T=−5 days), animals received daily intra-peritoneal injections of 30 mg/kg nefiracetam or vehicle only until the end of the study. At different time points, (T=1 day, T=3 days, T=7 days) animals were sacrificed, brains were snap frozen in Optimal Cutting Temperature (OTC) Compound and stored. Coronal frozen sections, 20 μm thick, were cut using a cryostat at approximately −1.8 mm from bregma. Sections were fixed in 70% ethanol, defatted in 50% chloroform/50% ethanol, rehydrated, and then myelin was stained with luxol fast blue. The degree of myelination in the corpus callosum was assessed based on the intensity of the luxol fast blue staining"}, "[4]": {"system": "Lewis rats susceptible to develop experimental autoimmune encephalomyelitis (EAE)", "assay": "EAE animal model of multiple Sclerosis (clinical score)", "format": "in vivo", "conditions": "versus saline-treated controls, n=5"}},
  "data": [
    {"smiles": "Cc1cccc(C)c1NC(=O)CN1CCCC1=O", "note": "[Nefiracetam, N-(2,6-dimethylphenyl)-2-(2-oxo-1-pyrrolidinyl)acetamide]", "values": [
      {"measurement": "MBP expression (percent of field of view positive for MBP)", "setting": "[1]", "value": "restored MBP expression to control levels or above"},
      {"measurement": "tolerability in humans", "setting": "[2]", "value": "well tolerated"},
      {"measurement": "myelin levels (myelin density) in the corpus callosum", "setting": "[3]", "value": "completely restored myelin levels to normal"},
      {"measurement": "clinical score (magnitude and timing of clinical symptoms)", "setting": "[4]; increasing doses (9, 15 and 30 mg/kg) i.p. daily from onset of clinical symptoms", "value": "No significant differences were seen"},
      {"measurement": "clinical score (magnitude and timing of clinical symptoms)", "setting": "[4]; treated from day of inoculation with MBP", "value": "No significant difference was seen"}
    ]},
    {"smiles": "COc1ccc(C(=O)N2CCCC2=O)cc1", "note": "[aniracetam]", "values": [
      {"measurement": "MBP expression (percent of field of view positive for MBP)", "setting": "[1]", "value": "restored MBP expression to control levels or above"}
    ]},
    {"smiles": "CC[C@H](C(N)=O)N1CCCC1=O", "note": "[levetiracetam]", "values": [
      {"measurement": "MBP expression (percent of field of view positive for MBP)", "setting": "[1]", "value": "restored MBP expression to control levels or above"}
    ]},
    {"smiles": "NC(=O)CN1CCCC1=O", "note": "[piracetam]", "values": [
      {"measurement": "MBP expression (percent of field of view positive for MBP)", "setting": "[1]", "value": "restored MBP expression to control levels or above"}
    ]}
  ]
}
